Laboratory results published in ChEMBL document CHEMBL3769324, “Acetophenone derivatives: novel and potent small molecule inhibitors of monoamine oxidase B” (Medchemcomm, 2015).

Columns and labels:
[1] = molecular target: T1, Amine oxidase [flavin-containing] A (Homo sapiens, UniProt P21397); assay: Inhibition of MAOA (unknown origin)
T1 sequence (P21397 whole entry): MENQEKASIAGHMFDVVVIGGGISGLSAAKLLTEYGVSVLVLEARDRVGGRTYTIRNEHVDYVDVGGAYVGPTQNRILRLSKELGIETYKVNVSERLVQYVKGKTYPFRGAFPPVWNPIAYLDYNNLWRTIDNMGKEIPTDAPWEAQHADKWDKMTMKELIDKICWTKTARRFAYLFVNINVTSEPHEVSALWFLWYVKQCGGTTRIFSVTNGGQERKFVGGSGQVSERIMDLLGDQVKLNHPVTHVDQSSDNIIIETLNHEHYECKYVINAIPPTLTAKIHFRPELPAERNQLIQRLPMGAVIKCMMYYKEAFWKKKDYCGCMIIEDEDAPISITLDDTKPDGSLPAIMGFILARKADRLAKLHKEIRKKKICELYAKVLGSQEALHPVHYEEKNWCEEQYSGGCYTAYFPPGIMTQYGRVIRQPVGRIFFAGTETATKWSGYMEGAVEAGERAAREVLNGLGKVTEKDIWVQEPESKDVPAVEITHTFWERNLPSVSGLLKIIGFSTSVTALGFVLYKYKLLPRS

[2] = molecular target: T2, Amine oxidase [flavin-containing] B (Homo sapiens, UniProt P27338); assay: Inhibition of MAOB (unknown origin)
T2 sequence (P27338 whole entry): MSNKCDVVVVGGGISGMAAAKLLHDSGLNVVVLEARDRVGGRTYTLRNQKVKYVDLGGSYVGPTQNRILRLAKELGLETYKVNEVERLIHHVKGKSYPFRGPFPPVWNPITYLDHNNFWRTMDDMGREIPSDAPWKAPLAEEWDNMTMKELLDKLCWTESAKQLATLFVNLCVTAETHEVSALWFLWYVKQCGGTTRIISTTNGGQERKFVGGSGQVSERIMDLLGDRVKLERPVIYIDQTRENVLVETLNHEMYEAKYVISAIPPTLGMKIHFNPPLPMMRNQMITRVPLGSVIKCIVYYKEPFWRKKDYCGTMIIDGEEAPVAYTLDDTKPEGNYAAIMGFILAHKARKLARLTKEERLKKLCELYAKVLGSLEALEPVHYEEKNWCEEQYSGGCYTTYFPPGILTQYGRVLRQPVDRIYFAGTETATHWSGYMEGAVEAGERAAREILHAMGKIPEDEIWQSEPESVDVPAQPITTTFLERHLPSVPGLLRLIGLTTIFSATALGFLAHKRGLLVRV

[3] = molecular target: T1, Amine oxidase [flavin-containing] A; assay: Inhibition of human MAOA using p-tyramine as substrate at 100 uM after 15 mins by Amplex Red MAO assay; settings: 0.25 h
[4] = molecular target: T2, Amine oxidase [flavin-containing] B; assay: Inhibition of human MAOB using p-tyramine as substrate after 15 mins by Amplex Red MAO assay
[5] = species on record: Homo sapiens; assay: Selectivity index, ratio of IC50 for human MAOA to IC50 for human MAOB
[6] = molecular target: T1, Amine oxidase [flavin-containing] A; assay: Inhibition of human MAOA using p-tyramine as substrate after 15 mins by Amplex Red MAO assay
[7] = molecular target: T2, Amine oxidase [flavin-containing] B; assay: Competitive inhibition of human MAOB using 50 to 500 uM of p-tyramine as substrate up to 20 nM by Lineweaver-Burk plot analysis
[8] = tested on: SH-SY5Y; assay: Neurotoxicity against human SH-SY5Y cells assessed as cell viability at 3 to 50 uM after 48 hrs by MTT assay; type: toxicity, cell-based
[9] = molecular target: T2, Amine oxidase [flavin-containing] B; assay: Reversible inhibition of human MAOB using p-tyramine as substrate preincubated for 60 mins

Structure (SMILES) | inhibition at 100 µM [3] [%] | IC50 [4] [nM] | Ratio IC50 [5] | further results
O=C1CCCc2cc(OCc3ccc(I)cc3)ccc21 |  |  |  | IC50 [1]: 1290 nM; IC50 [2]: 4.5 nM
CC(=O)c1ccc(OCc2cccc(C)c2)cc1 | 32.3 | 86.3 | > 1160 | 
CC(=O)c1cccc(OCc2ccc(C(F)(F)F)cc2)c1 | 27.2 | 43.2 | > 2320 | 
CC(=O)c1ccc(OCc2ccc([N+](=O)[O-])cc2)cc1 | 33.8 | 96.5 | > 1040 | 
CC(=O)c1cccc(OCc2ccc(Cl)cc2)c1 |  |  |  | IC50 [6]: 39700 nM; Activity [7]: Active; Activity [8]: Non-toxic
CC(=O)c1cccc(OCc2ccc(Br)cc2)c1 |  |  |  | IC50 [6]: 48700 nM
CC(=O)c1cccc(OCc2cccc(F)c2)c1 | 31 | 193 | > 518 | 
CC(=O)c1cccc(OCc2ccc(F)cc2)c1 | 49.6 | 86.4 | > 1160 | 
CC(=O)c1cccc(OCc2cccc(C(F)(F)F)c2)c1 | 46.7 | 21.2 | > 4720 | inhibition (INH) [9]: Active
CC(=O)c1ccc(OCc2ccccc2)cc1 | 8.19 | 110 | > 909 | 
CC(=O)c1ccc(OCc2ccc(F)cc2F)cc1 | 45.7 | 27.3 | > 3660 | 
CC(=O)c1ccc(OCc2ccc(Cl)cc2)cc1 |  | 63.2 | 1480 | IC50 [6]: 93600 nM
CC(=O)c1cccc(OCc2cccc(Br)c2)c1 | 49.1 | 96.3 | > 1040 | 
CC(=O)c1ccc(OCc2ccccc2C(F)(F)F)cc1 |  | 183 | 385 | IC50 [6]: 70500 nM
CC(=O)c1cccc(OCc2ccc([N+](=O)[O-])cc2)c1 |  | 75.4 | 1180 | IC50 [6]: 88300 nM
CC(=O)c1cccc(OCc2cccc(C)c2)c1 | 31.1 | 893 | > 112 | 
CC(=O)c1cccc(OCc2cccc(Cl)c2)c1 |  | 34.2 | 1370 | IC50 [6]: 46800 nM
C#CCNCc1cc2cc(OCc3ccccc3)ccc2[nH]1 |  |  |  | IC50 [1]: 790 nM; IC50 [2]: 11 nM
CC(=O)c1ccc(OCc2ccc(Br)cc2)cc1O |  |  |  | IC50 [1]: 15800 nM; IC50 [2]: 4 nM
CC(=O)c1ccc(OCc2ccc(Br)cc2)cc1 | 23.2 | 85.6 | > 1170 | 

Structure (SMILES) | inhibition at 100 µM [3] [%] | IC50 [4] [nM] | Ratio IC50 [5] | further results
CC(=O)c1cccc(OCc2ccc(C)cc2)c1 | 23 | 140 | > 714 | 
CC(=O)c1ccc(OCc2cccc(C(F)(F)F)c2)cc1 | 48.9 | 58.2 | > 1720 | 
C[C@H](NCc1ccc(OCc2cccc(F)c2)cc1)C(N)=O [SAFINAMIDE] | 9.74 |  |  | 
CC(=O)c1ccc(OCc2ccccc2C)cc1 | 42.9 | 77.1 | > 1300 | 
CC(=O)c1ccc(OCc2cccc([N+](=O)[O-])c2)cc1 |  | 104 | 493 | IC50 [6]: 51300 nM
O=C1CCc2ccc(OCc3ccc(Br)cc3)cc2N1 |  |  |  | IC50 [1]: 7980 nM; IC50 [2]: 2.9 nM
CC(=O)c1ccc(OCc2ccccc2Cl)cc1 |  | 311 | 288 | IC50 [6]: 89600 nM
CC(=O)c1ccc(OCc2cc(F)c(F)c(F)c2)cc1 | 44.3 | 84.1 | > 1190 | 
CC(=O)c1ccc(OCc2cccc(Cl)c2)cc1 |  |  |  | IC50 [6]: 83300 nM
CC(=O)c1ccc(OCc2ccc(F)cc2)cc1 | 43.5 |  |  | Activity [7]: Active; Activity [8]: Non-toxic
CC(=O)c1ccc(OCc2ccc(F)c(F)c2)cc1 |  | 67.9 | 1150 | IC50 [6]: 78300 nM
CC(=O)c1ccc(OCc2cccc(F)c2)cc1 | 48.4 | 83.1 | > 1200 | 
CC(=O)c1ccc(OCc2ccc(C(F)(F)F)cc2)cc1 | 26.4 | 77.8 | > 1280 | 
CC(=O)c1cccc(OCc2cccc([N+](=O)[O-])c2)c1 | 17.8 | 114 | > 877 | 
CC(=O)c1ccc(OCc2ccccc2[N+](=O)[O-])cc1 | 34 | 284 | > 352 | inhibition (INH) [9]: Active
CC(=O)c1ccc(OCc2ccc(C)cc2)cc1 | 5.96 | 102 | > 980 | 
CC(=O)c1cccc(OCc2ccccc2)c1 | 31 | 1950 | > 51.3 | 
CC(=O)c1ccc(OCc2cccc(Br)c2)cc1 | 48.3 | 214 | > 467 | 
CC(=O)c1ccc(OCc2ccccc2F)cc1 | 47.1 | 56.9 | > 1760 | 
